Where two headings read alike, the source gives them in different places.
Tests used:
26 CRC cell lines = assay: Cell proliferation, CCK-8, panel of 26 CRC cell lines; format: cell-based; details: Homo sapiens, CCK-8, 48 h
Description: Cell proliferation was evaluated using a Cell Counting Kit-8 (CCK-8) (Dojindo) following the manufacturer's instructions. Briefly, CRC cells were plated in 96-well plates at a density of 5 × 10^3 cells per well. […] Cells treated with DMSO were used as the […] controls, and the final DMSO concentration in the medium was 0.1%. After 48 h of treatment, 10 μL of CCK-8 solution was added to every well and incubated for 1 h at 37 °C. Then, a microplate reader (Synergy H4 Hybrid Reader, BioTek) was used to measure the absorbance of the solvent at 450 nm. The background of drug and culture medium has been deducted in each well. The relative cell proliferation of each treatment group was expressed as the percentage change relative to the […] control group. Each data point is the mean ± s.d. of two or three independent experiments.

HCT116 = assay: Cell cycle analysis (PI staining, flow cytometry); format: cell-based, human; details: for cell cycle phase distribution, G2/M: 48 h (0 µM: 20.4 ± 4.5); for cell cycle phase distribution, S: 48 h (0 µM: 30.1 ± 4.4); for cell cycle phase distribution, G0/G1: 48 h (0 µM: 49.5 ± 3.5)
Description: (§1) Then, cells were collected and fixed with 75% ethanol at 4 °C overnight. The cells were incubated with RNase I (50 μg/mL) in 1× PBS at 37 °C for 30 min and stained with propidium iodide (50 μg/mL) for 15 min. The cells were analyzed by flow cytometry and FACS DIVA software, v6.2 (BD Biosciences). The cell cycle distribution was analyzed using FlowJo 7.6.1 software. The data are presented as the mean ± s.d. of three independent experiments.

SW480 = assay: Cell cycle analysis (PI staining, flow cytometry); format: cell-based, human; details: for cell cycle phase distribution, G2/M: 48 h (0 µM: 13.9 ± 1.8); for cell cycle phase distribution, S: 48 h (0 µM: 38.3 ± 3.6); for cell cycle phase distribution, G0/G1: 48 h (0 µM: 47.7 ± 1.3)
Description: as §1

[1] = system: CRC cell lines (HCT116, HT29, SW480); assay: LDH assay of cytotoxicity in CRC cell lines; format: cell-based; details: 48 h, pharmacological concentrations
Description: (§2) Cell cytotoxicity was assessed by measuring LDH release from damaged or dead cells using a Cytotoxicity LDH Assay Kit-WST (Dojindo) following the manufacturer's instructions. Briefly, 5 × 10^3 cells per well were plated in 96-well plates. […] The final DMSO concentration in the medium was 0.1%. The amount of LDH leakage from the cells was determined by measuring the absorbance at 490 nm using a microplate reader (Synergy H4 Hybrid Reader, BioTek). The percentage of cytotoxicity was calculated as follows: [(test sample - low control)/ (high control - low control)] × 100, where low control is the absorbance of the culture medium without any added extract, and high control is the absorbance of the culture medium in which the cells were treated with 1% (v/v) Triton X-100 to achieve 100% LDH release. Each data point is presented as the mean ± s.d. of three independent experiments.

FHC cells = assay: LDH assay of cytotoxicity in FHC cells; format: cell-based; details: 48 h
Description: as §2

[2] = system: CRC cells (HCT116, HT29, and SW480); assay: Calcein-AM/PI live-dead double staining; format: cell-based; details: 10 μM MDL-811, CRC cells
Description: Live-dead cell staining was performed following the protocol of a Calcein-AM/PI Double Stain Kit (Yeasen). Briefly, 3 × 10^4 cells per well were seeded into 24-well plates. […] Then, cell images were acquired with a fluorescence microscope (Nikon Inverted Research Microscope Eclipse Ti). For each assay, five random fields of view per well were imaged at 10× magnification.

HCT116 xenograft tumors [3] = assay: HCT116 CDX model; format: in vivo, BALB/c nude mice; details: 20 or 30 mg/kg intraperitoneally every other day for 16 days
Description: (§3) All animal studies were performed following federal and institutional guidelines approved by the Institutional Animal Care and Use Committee at Shanghai Jiao-Tong University School of Medicine. To establish the CDXs, HCT116 cells (1 × 10^6) suspended in 100 μL of 1× PBS were injected subcutaneously into the flanks of six-week-old male BALB/c nude mice. To establish the PDXs, primary tumors resected from two independent CRC patients (patient #1 and #2) were collected in the culture medium. The necrotic and supporting tissues were carefully removed using sterilized surgical blades. The gross tumor was cut into fragments (2-3 mm in diameter) and inoculated subcutaneously into the flanks of nude mice. The mice were monitored daily, and caliper measurements began when tumors became visible. The tumor volume was monitored every other day via calipers. The tumor volume was calculated using the following formula: (L × W ^2) / 2, where L and W refer to the tumor diameter along the longitudinal and transverse axes, respectively. When the mean tumor volume was approximately 100 to 250 mm^3, the mice were randomly grouped (n = 6 per group for CDXs, n = 8 per group for PDXs), and treatment was initiated. […] After treatment or if meeting the humane endpoint criteria, the mice were sacrificed by CO2 asphyxiation. The tumors were dissected, imaged, and weighed. […]

[4] = system: PDX tumors from CRC patients #1 and #2; assay: CRC PDX models; format: in vivo, nude mice; details: 30 mg/kg intraperitoneally every other day for 12 days, two PDX models
Description: as §3

[5] = system: HCT116, HT29, and LOVO cells; assay: Combination drug treatment, CCK-8, Chou-Talalay combination index; format: cell-based, human; details: MDL-811 (5 to 10 μM) plus 1,25(OH)2D3 (1 to 10 μM), 48 h, three CRC cell lines; CI < 1 = synergism
Description: 1,25(OH)2D3 was purchased from TargetMol. For cell proliferation assays, 1,25(OH)2D3 was dissolved in DMSO, stored at -20 °C and protected from light. The maximum final DMSO concentration used in all treatment conditions was 0.25%. […] Then, cell proliferation assays were performed using the CCK-8 method. Combination effects were analyzed by the Chou-Talalay combination index (CI) method. The CI values and the fraction of cells affected values were generated using CompuSyn Version 1.0 software. CI values of < 1, = 1, and > 1 indicate synergism, additivity, and antagonism between the drugs, respectively.

HCT116 xenograft tumors [6] = assay: Combination treatment in the HCT116 CDX model; format: in vivo, BALB/c nude mice; details: 15 mg/kg MDL-811 plus 50 μg/kg 1,25(OH)2D3 intraperitoneally every other day for 14 days, vs vehicle or single drug

Cc1cc(F)c(Br)cc1NS(=O)(=O)c1ccc(NS(=O)(=O)c2cc(Cl)cc(Cl)c2)cc1CN1CCOC[C@H]1C [MDL-811]
IC50 (26 CRC cell lines; more than 75% (20 of 26) of the CRC cell lines, read-out: IC50 in 20 of 26 CRC cell lines): < 25 µM | IC50 (26 CRC cell lines; range over 26 CRC cell lines, read-out: IC50 values across the 26 CRC cell lines): 4.7 to 61 µM | cell cycle phase distribution, G2/M (HCT116; HCT116, 5 µM): 17.9 ± 4.0 | cell cycle phase distribution, S (HCT116; HCT116, 5 µM): 19.0 ± 2.3 | cell cycle phase distribution, G0/G1 (HCT116; HCT116, 5 µM): 63.2 ± 2.1 | cell cycle phase distribution, G2/M (HCT116; HCT116, 10 µM): 14.1 ± 3.8 | cell cycle phase distribution, S (HCT116; HCT116, 10 µM): 19.0 ± 4.3 | cell cycle phase distribution, G0/G1 (HCT116; HCT116, 10 µM): 66.9 ± 1.4 | cell cycle phase distribution, G2/M (SW480; SW480, 5 µM): 10.8 ± 4.4 | cell cycle phase distribution, S (SW480; SW480, 5 µM): 26.3 ± 5.1 | cell cycle phase distribution, G0/G1 (SW480; SW480, 5 µM): 62.9 ± 6.0 | cell cycle phase distribution, G2/M (SW480; SW480, 10 µM): 11.9 ± 6.4 | cell cycle phase distribution, S (SW480; SW480, 10 µM): 18.1 ± 4.9 | cell cycle phase distribution, G0/G1 (SW480; SW480, 10 µM): 70.0 ± 3.8 | cytotoxicity (LDH release) [1]: minimal cytotoxic effect | cytotoxicity (LDH release) (FHC cells): low cytotoxic effect | cell death, live-dead double staining [2]: did not cause observable cell death | tumor growth (HCT116 xenograft tumors [3]): strongly suppressed tumor growth in a dose-dependent manner | tumor growth [4]: strong tumor regression in both PDX models | CI values (Chou-Talalay) [5]: < 1 | tumor growth, cotreatment (HCT116 xenograft tumors [6]): dramatically enhanced tumor growth regression
